This is an account of results in patent US11274118B2 (priority 2012, dated 2022).

Data set [1] is described as follows: physchem. The following applies: kinetic from dmso stock.
Data set [2] deals with Primary cortical cells. Kind of data set: Reduction of neuronal cell death after a glutamate challenge (MTT / LDH release). Format: cell-based. The following applies: for inhibition at 5 µM: 24 h, read-out: reduction in cell death at a 5 μM dose; for dose at maximum efficacy: primary cortical cells; for Emax: read-out: maximum efficacy, reduction in cell death. On the technique in general: LDH in the medium is a marker of cell lysis.

For data set [3], the system named is cerebral edema in rats following bilateral cortical contusion. The note with it: rat.
The conditions of data set [4]: rat plasma.
Data set [5] can be described thus: In vitro metabolism in human liver microsomes. The following applies: human liver microsomes at 37° C., 0-60 min. A general note: Liver microsomes are vesicles of endoplasmic reticulum, rich in cytochrome P450 enzymes.
For data set [6] the following is noted: human plasma.
Data set [7] in a line: Rat pharmacokinetic profile, i.m. injection. Format: in vivo. The note with it: rats. As to the method: PK Animal Methods. Rat PK studies were done in jugular cannulated male SD rats, weighing 250-300 grams. 7 was dosed i.v. and i.m.; 13 was dosed i.m. only. For i.v. dosing 7 was formulated in PEG 300/glycofurol/Tween 80/water (26/5/2/67) and dosed @ 10 mg/kg and 3.3 ml/kg. For i.m. dosing, both compounds were formulated in propylene glycol/Tween 80/50 mM Citrate, pH 5.0 (40/4/56) and dosed @10 mg/kg and 1 ml/kg into the upper leg. Blood samples (0.3 ml) were taken at 0.25, 0.50, 1, 2, 4, 6 & 8 hours in the i.m. experiments; the same time points were used for the i.v. experiment, with the addition of an early 0.08 hr (5 min) time point. Samples were collected in either Li heparin or K EDTA microtainers, centrifuged at 2000×g for 10 minutes. Plasma was then transferred to 2 ml Eppendorf tubes, frozen on dry ice and transferred to a −80° C. freezer for storage until analysis for prodrug, oxime and progesterone by LC/MS/MS, followed by pharmacokinetic analysis by WinNonlin.

The conditions of data set [8]: rat, in vivo, iv.
Data set [9] can be described thus: physchem. The following applies: pH 7.
Data set [10] is described as follows: physchem. The note with it: aqueous with cosolvent or surfactant or cyclodextrin.
Data set [11] in a line: Exposure to rat S9 liver fractions. The following applies: hydrochloride. Format: in vitro ADME.
For data set [12] the following is noted: buffer.
The test system of data set [13] is moderate to severe TBI patients. The note with it: 3 days of intravenous treatment, 100 moderate to severe TBI patients; cited from earlier work.
The mark [14] stands for this setting: male, Sprague-Dawley (SD), 10 mg/kg.

≈ marks a conversion by molar mass, not a printed value. Read-outs that look alike come from different tables or passages of the source.

A word on the solubility: it is the concentration that dissolves in the medium under given conditions. High values mean a readily soluble substance, low ones a poorly soluble substance. Consider `CC(=O)[C@H]1CC[C@H]2[C@@H]3CCC4=C/C(=N/OC(=O)[C@@H](N)C(C)C)CC[C@]4(C)[C@H]3CC[C@]12C.Cl` [Compound 1, (S)-1-((E)-((8S,9S,10R,13S,14S,17S)-17-Acetyl-10,13-dimethyl-7,8,9,11-tetrahydro-1H-cyclopenta[a]phenanthren-3 (2H,6H, 1 OH, 12H, 13H, 14H, 15H, 16H, 17H)-ylidene)aminooxy)-2-amino-3-methylbutan-1-one Hydrochloride], for which the solubility at 90 min was 322 µM in data set [1] (pH 4, aqueous buffer) and 172 µM in data set [1] (pH 7, aqueous buffer). For the same compound, the inhibition at 5 µM in [2] turned out to be 27%. In addition, the “dose at maximum efficacy” value in data set [2] (glutamate challenge) was determined as 5 µM. In data set [2], the Emax stood at 27%. Also, the “activity in in vitro and in vivo models of brain injury TBI” value in data set [3] is listed as “activity similar to that of progesterone”. Also, the “reduction of brain edema after 24 hours compared to untreated rats” value (“reduction of brain edema after 24 hours” below) in data set [3] (in vivo) amounted to 59%. The conversion to progesterone result in [4] and in [6] was “neither of the test compounds were converted to progesterone” in each case. Moreover, in [5], the “metabolism in human liver microsomes” value was “hydrolyzed rapidly to the free oxime 2 as well as lesser quantities of progesterone”. Further, in [7], the “plasma levels of free oxime, parent prodrug and progesterone” value was “generated measurable concentrations of the corresponding oximes without evidence of either the parent prodrug or progesterone”. In addition, in [8] (setting [14]), the “plasma levels of parent, free oxime and progesterone” value was “hydrolyzed rapidly to provide large concentrations of the free oxime 2 and smaller concentrations of progesterone”.
The term half-life denotes how long it takes for the measured level to halve. A higher half-life goes with slow decline. Regarding `CC(=O)[C@H]1CC[C@H]2[C@@H]3CCC4=C/C(=N/O)CC[C@]4(C)[C@H]3CC[C@]12C` [Compound 2, 1-((8S,9S,10R,13S,14S,17S,E)-3-(Hydroxyimino)-10,13-dimethyl-2,3,6,7,8,9,10,11,12,13,14,15,16,17-tetradecahydro-1H-cyclopenta[a]phenanthren-17-yl)ethanone], the solubility at 90 min in [1] (pH 4, aqueous buffer) is less than 45 µM. The same compound returned a solubility at 90 min in [1] (pH 7, aqueous buffer) of less than 45 µM. In data set [2], the inhibition at 5 µM amounted to 21% and the Emax stood at 21%. Also, the “dose at maximum efficacy” value in data set [2] (glutamate challenge) is 5 µM. Besides, in [3] (in vivo, iv, 4 mg/kg), the “reduction of brain edema” value amounted to 60%. Moreover, in data set [9] (buffer), the half-life was more than 10 days. The “concentrations of circulating drug” value in data set [8] (4 mg/kg) is given as “micromolar concentrations”.
For `C/C(=N\O)[C@H]1CC[C@H]2[C@@H]3CCC4=CC(=O)CC[C@]4(C)[C@H]3CC[C@]12C` [Compound 3, (8S,9S,10R,13S,14S,17S)-17-((E)-1-(Hydroxyimino)ethyl)-10,13-dimethyl-6,7,8,9,10,11,12,13,14,15,16,17-dodecahydro-1H-cyclopenta[a]phenanthren-3(2H)-one], the “aqueous solubility” value (neutral pH) is given as “highly insoluble”.
As to `CO/N=C(\C)[C@H]1CC[C@H]2[C@@H]3CCC4=CC(=O)CC[C@]4(C)[C@H]3CC[C@]12C` [Compound 4, (8S,9S,10R,13S,14S,17S)-17-((E)-1-(Methoxyimino)ethyl)-10,13-dimethyl-6,7,8,9,10,11,12,13,14,15,16,17-dodecahydro-1H-cyclopenta[a]phenanthren-3(2H)-one], the solubility at 90 min in [1] (pH 4, aqueous buffer) was less than 25 µM; in [1] (pH 7, aqueous buffer), less than 25 µM. Also, the half-life in [9] (buffer) is more than 10 days.
Regarding `C/C(=N\OCCN1CCOCC1)[C@H]1CC[C@H]2[C@@H]3CCC4=CC(=O)CC[C@]4(C)[C@H]3CC[C@]12C` [Compound 5, (8S,9S,10R,13S,14S,17S)-10,13-Dimethyl-17-((E)-1-(2-morpholinoethoxyimino)ethyl)-6,7,8,9,10,11,12,13,14,15,16,17-dodecahydro-1H-cyclopenta[a]phenanthren-3 (2H)-one], the solubility at 90 min in data set [1] (pH 4, aqueous buffer) is more than 450 µM. In [1] (pH 7, aqueous buffer), this compound gave a solubility at 90 min of 108 µM (≈ 47.8 µg/mL). In data set [2], the inhibition at 5 µM turned out to be 26% and the Emax is 26%. Besides, the “dose at maximum efficacy” value in [2] (glutamate challenge) is 5 µM. The compound further yielded a half-life in data set [9] (buffer) of more than 10 days.
As for `C/C(=N\OC(=O)[C@@H](N)C(C)C)[C@H]1CC[C@H]2[C@@H]3CCC4=CC(=O)CC[C@]4(C)[C@H]3CC[C@]12C.Cl` [Compound 7, (8S,9S,10R,13 S,14S,17S)-17-((E)-1-((S)-2-Amino-3-methylbutanoyloxyimino)ethyl)-10,13-dimethyl-6,7,8,9,10,11,12,13,14,15,16,17-dodecahydro-1H-cyclopenta[a]phenanthren-3 (2H)-one hydrochloride], the solubility at 90 min in data set [1] (pH 4, aqueous buffer) was more than 645 µM. For the same compound, in data set [1] (pH 7, aqueous buffer), the solubility at 90 min worked out at 146 µM. Besides, in [2], the inhibition at 5 µM worked out at 24% and the Emax came to 24%. The “dose at maximum efficacy” value in [2] (glutamate challenge) stood at 5 µM. In addition, the solubility in [10] was not below 60 mM. For the same compound, the “reduction of brain edema after 24 hours” value in [3] (in vivo) was 56%. For the same compound, in [4], the conversion to progesterone entry is “neither of the test compounds were converted to progesterone”. In [11], the “metabolism in rat S9 liver fractions” value was “relatively stable and no measurable quantities of progesterone were generated”. The same compound gave a half-life in data set [9] (buffer) of 0.475 days. Also, in data set [6], the conversion to progesterone result is reported as “neither of the test compounds were converted to progesterone”. In data set [7], the “Cmax and AUC, compared with 1” value was “significantly higher Cmax and AUC than the relative C-3 oxime 1”; the “plasma levels of free oxime, parent prodrug and progesterone” value is “generated measurable concentrations of the corresponding oximes without evidence of either the parent prodrug or progesterone”. For the same compound, in [8] (setting [14]), the “levels of progesterone produced, compared with compound 1” value is “superior to those generated by compound 1”; the “plasma levels of parent, free oxime and progesterone” value is “low levels of the parent compound 7 was observed, high levels of the relative free oxime 3, and therapeutic levels of progesterone”.
Consider `C/C(=N\OC(=O)[C@@H]1CCC[N+]1(C)C)[C@H]1CC[C@H]2[C@@H]3CCC4=CC(=O)CC[C@]4(C)[C@H]3CC[C@]12C.[I-]` [Compound 9, (8S,9S,10R,13S,14S,17S)-10,13-Dimethyl-17-((E)-1-((S)-1,1-Dimethylpyrrolidine-2-carbonyloxyimino)ethyl)-6,7,8,9,10,11,12,13,14,15,16,17-dodecahydro-1H-cyclopenta[a]phenanthren-3(2H)-one iodide], for which the solubility at 90 min in [1] (pH 4, aqueous buffer) was 345 µM; in data set [1] (pH 7, aqueous buffer), 51 µM. In addition, in [9] (buffer), the half-life was determined as 0.0347 days.
Take `C/C(=N\OC(=O)CN(C)C)[C@H]1CC[C@H]2[C@@H]3CCC4=CC(=O)CC[C@]4(C)[C@H]3CC[C@]12C` [Compound 10, (8S,9S,10R,13S,14S,17S)-17-((E)-1-(2-(Dimethylamino)acetoxyimino)ethyl)-10,13-dimethyl-6,7,8,9,10,11,12,13,14,15,16,17-dodecahydro-1H-cyclopenta[a]phenanthren-3(2H)-one]: the solubility at 90 min in data set [1] (pH 4, aqueous buffer) stood at 449 µM (≈ 186 µg/mL); in [1] (pH 7, aqueous buffer) it was 171 µM (≈ 70.9 µg/mL). In addition, the “Aqueous Stability t1/2 at pH = 7.0” value in data set [12] was 6.2 h.
Turning to `C/C(=N\OC(=O)CN1CCN(C)CC1)[C@H]1CC[C@H]2[C@@H]3CCC4=CC(=O)CC[C@]4(C)[C@H]3CC[C@]12C` [Compound 13, (8S,9S,10R,13S,14S,17S)-10,13-Dimethyl-17-((E)-1-(2-(4-methylpiperazin-1-yl)acetoxyimino)ethyl)-6,7,8,9,10,11,12,13,14,15,16,17-dodecahydro-1H-cyclopenta[a]phenanthren-3 (2H)-one], the solubility at 90 min in data set [1] (pH 4, aqueous buffer) was 153 µM (≈ 71.9 µg/mL); in data set [1] (pH 7, aqueous buffer) it was 145 µM (≈ 68.1 µg/mL). In [9] (buffer), this compound gave a half-life of approximately 3 days.
The Aqueous solubility is how much of the substance goes into solution per volume. Lower therefore signals a poorly soluble substance. `CC(=O)[C@H]1CC[C@H]2[C@@H]3CCC4=CC(=O)CC[C@]4(C)[C@H]3CC[C@]12C` [PROG, Progesterone, reference compound] registered a solubility at 90 min in [1] (pH 4, aqueous buffer) of less than 25 µM. The same compound showed a solubility at 90 min in [1] (pH 7, aqueous buffer) of less than 25 µM. The “efficacy at the 5 μM dose” value in data set [2] (5 μM, glutamate challenge) is listed as “nearly ineffective”. Further, in data set [2], the inhibition at 5 µM turned out to be 4% and the Emax turned out to be 42%. Further, in data set [2] (glutamate challenge), the “dose at maximum efficacy” value was 20 µM. Further, the reduction of mortality result in [13] was “over 60%”. For the same compound, the “reduction of brain edema after 24 hours” value in [3] (in vivo) is listed as 62%. Also, the “Aqueous solubility at pH 7” value (90 min, pH 7) is less than 25 μM. The same compound displayed a half-life in [9] (phosphate buffer) of more than 10 days.
